Measurements from patent US20220056018A1, “SREBP INHIBITORS COMPRISING A THIOPHENE CENTRAL RING” (Capulus Therapeutics, LLC, priority 2019, published 2022).

How the values were obtained:
[1] = Stability in mouse liver microsomes; format: in vitro ADME
Protocol: (§1) Compounds were evaluated for stability in human liver microsomes. A 10 mM stock solution of the compound being evaluated was prepared in DMSO and diluted with water:acetonitrile (1:1) to a concentration of 1 mM. A working concentration of 100 μM was prepared by further dilution with water:acetonitrile (1:1). To make the preincubation mixture, 2.5 μL of the diluted compound was combined with 75 μL of human liver microsomes at 3.33 mg/mL, and 85 μL of 100 mM potassium phosphate buffer, and this mixture was pre-incubated for 10 min at 37° C. To make the 60 minute mixture without cofactor, 32.5 μL of the preincubation mixture was combined with 17.5 μL of 100 mM potassium phosphate buffer and incubated for 60 min at 37° C. To make the 0 min sample with cofactor (NADPH), 16.25 μL of the preincubation mixture was combined with 200 μL of acetonitrile containing internal standard and 8.75 μL of cofactor (NADPH). To make the incubation mixture, 62 μL of cofactor (2.85 mM) was combined with the remaining incubation mixture, and incubated for 60 min at 37° C. To prepare the sample mixture to be evaluated, 25 μL incubation mixture was combined with 200 μL of acetonitrile containing internal standard and vortexed for 5 min at 1200 rpm, then centrifuged for 10 min at 4000 rpm. The supernatant was diluted 2 fold with water and injected on LC-MS/MS. The sample mixture was evaluated by LC-MS/MS using 10 mM ammonium acetate with 0.100 FA as the aqueous mobile phase, and methanol as the organic mobile phase.
Half-Life Mouse Microsomes:
Compounds were evaluated in mouse liver microsomes following a similar procedure as described above for human liver microsomes. A similar procedure could be used to evaluate compounds in rat liver microsomes.

[2] = Stability in human liver microsomes; format: in vitro ADME; conditions: 37° C., NADPH
Protocol: Half-Life Human Microsomes:
as §1

[3] = tested on: SREBP; test: Reporter Screening Assay (SRE-luciferase reporter, HepG2); format: cell-based; conditions: Homo sapiens; SRE-luciferase reporter HepG2 cells, 24 hours, 0.01 uM to 10 uM; read-out: I: Reporter Screening Assay (Ave EC50 (nM))
Protocol: Reporter Screening Assay: This assay was used to evaluate the effect on transcriptional activity SREBP of selected compounds using an SRE-luciferase reporter construct. On day 1, 10,000 cells were seeded in a 96 well (white) plate as per the plate map in Growth media without antibiotics. Cells were incubated at 37° C. for 8 hours. After 8 hours, cells were washed with DPBS for complete removal of FBS. DPBS was completely removed and Growth media was replaced with phenol free treatment medium (90 μl) with different FBS concentrations. The cells were then incubated at 37° C. for 24 hours with varying doses (0.01 uM to 10 uM) of compounds. Then a Luciferase assay was performed.
Reagents for performing Luciferase assay were stored at −20° C. To a tube of lyophilized assay substrate was added 1 mL Substrate Solvent and mixed well. The Substrate tube after reconstitution was covered with aluminum foil so as to keep it protected from light. The assay buffer was thawed to room temperature. To 20 mL Assay Buffer was added 200 μL of reconstituted 100× Substrate and mixed well. The reconstituted substrate as well as the assay solution (buffer+substrate) was protected from light throughout the procedure by keeping it covered with aluminum foil. Using a multi-channel pipette, 100 μL Assay Solution (buffer+substrate) was added directly to each sample well in Plate 1, which was incubated for 30 min (plate was covered with aluminum foil). After 30 min incubation, the plate was read for total luminescence. Each well was read for 2 seconds in a plate luminometer. (Microplate reader Envision Microplate reader from Perkin Elmer). Precaution was taken to incubate plate exactly for 30 min prior to reading on the plate reader.
SREBPv1 Reporter cell line: HepG2—#32251. Growth Medium: MEM (Corning 10-010), 10% FBS, 1% GlutaMax (Invitrogen Catalog #35050061), […] (Invitrogen Catalog # A1113803) and 1% Penicillin-Streptomycin (Pen-Strep). Treatment Media: Phenol-free MEM (Invitrogen Catalog #51200-038) and 1% GlutaMax (Invitrogen Catalog #35050061). Luciferase Assay: LightSwitch Luciferase Assay Kit (Catalog #32032). LDH assay: Pierce LDH Cytotoxicity Assay Kit (Catalog # SD249616).

SMILES	percent parent remaining after 60 min in liver microsomes [1]	percent of compound remaining after 60 min in human liver microsomes [2]	EC50 [3]
CN(c1ccc(-c2cc(-c3ccnc(C4CC4)c3)cs2)c(Cl)c1)S(C)(=O)=O [Compound I-9037, N-(3-chloro-4-(4-(2-cyclopropylpyridin-4-yl)thiophen-2-yl)phenyl)-N-methylmethanesulfonamide]	+++ (>60.1 = +++)	+++ (>60.1 = +++)	< 249 nM
CC(C)OC(=O)Nc1ccc(-c2cc(-c3ccnc(C4(CO)CC4)c3)cs2)c(Cl)c1 [Compound I-8980, Isopropyl (3-chloro-4-(4-(2-(1-(hydroxymethyl)cyclopropyl)pyridin-4-yl)thiophen-2-yl)phenyl)carbamate]	+++ (>60.1 = +++)	+++ (>60.1 = +++)	< 249 nM
CC(C)(O)c1cc(-c2csc(-c3ccc(NS(C)(=O)=O)cc3Cl)c2)ccn1 [Compound I-9064, N-(3-chloro-4-(4-(2-(2-hydroxypropan-2-yl)pyridin-4-yl)thiophen-2-yl)phenyl)methanesulfonamide]	+++ (>60.1 = +++)	+++ (>60.1 = +++)	< 249 nM
CC(C)OC(=O)Nc1ccc(-c2cc(-c3ccnc(CC(C)(C)O)c3)cs2)c(Cl)c1 [Compound I-9051, isopropyl (3-chloro-4-(4-(2-(2-hydroxy-2-methylpropyl)pyridin-4-yl)thiophen-2-yl)phenyl)carbamate]	+++ (>60.1 = +++)	+++ (>60.1 = +++)	> 500 nM
CC(C)(O)Cc1cc(-c2cc(-c3ccc(NS(C)(=O)=O)cc3Cl)sc2F)ccn1 [Compound I-9085, N-(3-chloro-4-(5-fluoro-4-(2-(2-hydroxy-2-methylpropyl)pyridin-4-yl)thiophen-2-yl)phenyl)methanesulfonamide]	+++ (>60.1 = +++)	+++ (>60.1 = +++)	> 500 nM
CC(C)(O)c1cc(-c2csc(-c3ccc(NC(=O)OC4CC4)cc3Cl)c2)ccn1 [Compound I-9065, cyclopropyl (3-chloro-4-(4-(2-(2-hydroxypropan-2-yl)pyridin-4-yl)thiophen-2-yl)phenyl)carbamate]	+++ (>60.1 = +++)	+++ (>60.1 = +++)	> 500 nM
Cc1sc(-c2ccc(NS(C)(=O)=O)cc2Cl)cc1-c1ccnc(CC(C)(C)O)c1 [Compound I-9091, N-(3-chloro-4-(4-(2-(2-hydroxy-2-methylpropyl)pyridin-4-yl)-5-methylthiophen-2-yl)phenyl)methanesulfonamide]	+++ (>60.1 = +++)	+++ (>60.1 = +++)	> 500 nM
CC(O)(CO)c1cc(-c2csc(-c3ccc(NS(C)(=O)=O)cc3Cl)c2)ccn1 (stereo not drawn) [Compound I-9088, N-(3-chloro-4-(4-(2-(1,2-dihydroxypropan-2-yl)pyridin-4-yl)thiophen-2-yl)phenyl)methanesulfonamide]	+++ (>60.1 = +++)	+++ (>60.1 = +++)	> 500 nM
CC(C)(C)c1cc(-c2csc(-c3ccc(S(C)(=O)=O)cc3)c2)ccn1 [Compound I-8723, 2-(tert-butyl)-4-(5-(4-(methylsulfonyl)phenyl)thiophen-3-yl)pyridine]	+++ (>60.1 = +++)	+++ (>60.1 = +++)	> 500 nM
CC(C)(CN)c1cc(-c2csc(-c3ccc(NS(C)(=O)=O)cc3Cl)c2)ccn1 [Compound I-9049, N-(4-(4-(2-(1-amino-2-methylpropan-2-yl)pyridin-4-yl)thiophen-2-yl)-3-chlorophenyl)methanesulfonamide]	+++ (>60.1 = +++)	+++ (>60.1 = +++)	> 500 nM
CN(C(=O)OC1CC1)c1ccc(-c2cc(-c3ccnc(C4(CO)CC4)c3)cs2)c(Cl)c1 [Compound I-9042, Cyclopropyl (3-chloro-4-(4-(2-(1-(hydroxymethyl)cyclopropyl)pyridin-4-yl)thiophen-2-yl)phenyl)(methyl)carbamate]	+++ (>60.1 = +++)	++ (30.1-60 = ++)	< 249 nM
CN(c1ccc(-c2cc(-c3ccnc(C4(CO)CC4)c3)cs2)c(Cl)c1)S(C)(=O)=O [Compound I-9056, N-(3-chloro-4-(4-(2-(1-(hydroxymethyl)cyclopropyl)pyridin-4-yl)thiophen-2-yl)phenyl)-N-methylmethanesulfonamide]	+++ (>60.1 = +++)	++ (30.1-60 = ++)	< 249 nM
CC(C)NS(=O)(=O)Nc1ccc(-c2csc(-c3ccnc(C(C)(C)CO)c3)c2)c(Cl)c1 [Compound I-9162, 2-(4-(4-(2-chloro-4-(((isopropylamino)thio)amino)phenyl)thiophen-2-yl)pyridin-2-yl)-2-methylpropan-1-ol, S,S-dioxide]	+++ (>60.1 = +++)	+ (0-30 = +)	–
CS(=O)(=O)Nc1ccc(-c2cc(-c3ccnc(OCCC4(O)COC4)c3)cs2)c(Cl)c1 [Compound I-9112, N-(3-chloro-4-(4-(2-(2-(3-hydroxyoxetan-3-yl)ethoxy)pyridin-4-yl)thiophen-2-yl)phenyl)methanesulfonamide]	+++ (>60.1 = +++)	+++ (>60.1 = +++)	–
CS(=O)(=O)Nc1ccc(-c2cc(-c3ccnc(O[C@@H]4CCC[C@@H]4O)c3)cs2)c(Cl)c1 [Compound I-9111, N-(3-chloro-4-(4-(2-(((1R,2S)-2-hydroxycyclopentyl)oxy)pyridin-4-yl)thiophen-2-yl)phenyl)methanesulfonamide]	+++ (>60.1 = +++)	+++ (>60.1 = +++)	–
CC(C)(CO)c1cc(-c2cc(-c3ccc(NC(=O)OC4CC4)cc3Cl)cs2)ccn1 [Compound I-9161, Cyclopropyl(3-chloro-4-(5-(2-(1-hydroxy-2-methylpropan-2-yl)pyridin-4-yl)thiophen-3-yl)phenyl)carbamate]	++ (30.1-60 = ++)	++ (30.1-60 = ++)	–
CS(=O)(=O)Nc1ccc(-c2cc(-c3ccnc(OCC4COCCO4)c3)cs2)c(Cl)c1 (stereo not drawn) [Compound I-9113, N-(4-(4-(2-((1,4-dioxan-2-yl)methoxy)pyridin-4-yl)thiophen-2-yl)-3-chlorophenyl)methanesulfonamide]	+++ (>60.1 = +++)	++ (30.1-60 = ++)	–
O=S(=O)(Nc1ccc(-c2cc(-c3ccnc(C4(CO)CC4)c3)cs2)c(Cl)c1)NC1CC1 [Compound I-9090]	++ (30.1-60 = ++)	++ (30.1-60 = ++)	–
